This test addresses T1, rhesus Langerin (Macaca mulatta, UniProt F7HNH2).
T1 construct: gene CD207; array protein; construct only in supplement
The experiment in a line: glycan microarray. Format: binding. Conditions: labelled compound (FAA probe, immobilised).

Each structure is given as a SMILES string.

T1 sequence (F7HNH2 1-328): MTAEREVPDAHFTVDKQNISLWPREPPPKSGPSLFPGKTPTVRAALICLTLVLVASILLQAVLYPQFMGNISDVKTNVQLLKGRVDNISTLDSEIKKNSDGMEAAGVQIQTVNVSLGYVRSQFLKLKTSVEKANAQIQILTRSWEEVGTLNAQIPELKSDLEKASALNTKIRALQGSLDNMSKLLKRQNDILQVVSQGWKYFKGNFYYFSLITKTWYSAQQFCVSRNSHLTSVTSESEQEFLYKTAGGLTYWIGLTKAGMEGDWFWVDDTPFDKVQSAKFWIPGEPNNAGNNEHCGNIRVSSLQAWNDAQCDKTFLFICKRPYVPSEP

Take `CC(=O)N[C@H]1[C@H](O[C@H]2[C@H](O)[C@@H](NC(C)=O)C(O)O[C@@H]2CO)O[C@H](CO)[C@@H](O[C@@H]2O[C@H](CO[C@H]3O[C@H](CO[C@H]4O[C@H](CO)[C@@H](O)[C@H](O)[C@@H]4O[C@H]4O[C@H](CO)[C@@H](O)[C@H](O)[C@@H]4O)[C@@H](O)[C@H](O[C@H]4O[C@H](CO)[C@@H](O)[C@H](O)[C@@H]4O[C@H]4O[C@H](CO)[C@@H](O)[C@H](O)[C@@H]4O)[C@@H]3O)[C@@H](O)[C@H](O[C@H]3O[C@H](CO)[C@@H](O)[C@H](O)[C@@H]3O[C@H]3O[C@H](CO)[C@@H](O)[C@H](O)[C@@H]3O[C@H]3O[C@H](CO)[C@@H](O)[C@H](O)[C@@H]3O)[C@@H]2O)[C@@H]1O` (stereo partly shown) [Man9GlcNAc2]: the glycan microarray result is “rhesus Langerin bound almost exclusively to Man9GlcNAc2”.

The record behind these values is publication PMC13493820, “Versatile Glycan Probes for Multiplatform Investigation of Glycan Interactions with Proteins, Viruses, and Cells” (Nature Communications, 2026).
